In ChEMBL document CHEMBL2073822, “cDNA sequence, transport function, and genomic organization of human OCTN2, a new member of the organic cation transporter family” (Biochem Biophys Res Commun, 1998) one finds activity and Activity data, which are given here for 8 molecules.

Data set [1] has as its target T1, OCTN2 (organic cation/carnitine transporter 2) (Homo sapiens, UniProt O76082).
T1 sequence (O76082 whole entry): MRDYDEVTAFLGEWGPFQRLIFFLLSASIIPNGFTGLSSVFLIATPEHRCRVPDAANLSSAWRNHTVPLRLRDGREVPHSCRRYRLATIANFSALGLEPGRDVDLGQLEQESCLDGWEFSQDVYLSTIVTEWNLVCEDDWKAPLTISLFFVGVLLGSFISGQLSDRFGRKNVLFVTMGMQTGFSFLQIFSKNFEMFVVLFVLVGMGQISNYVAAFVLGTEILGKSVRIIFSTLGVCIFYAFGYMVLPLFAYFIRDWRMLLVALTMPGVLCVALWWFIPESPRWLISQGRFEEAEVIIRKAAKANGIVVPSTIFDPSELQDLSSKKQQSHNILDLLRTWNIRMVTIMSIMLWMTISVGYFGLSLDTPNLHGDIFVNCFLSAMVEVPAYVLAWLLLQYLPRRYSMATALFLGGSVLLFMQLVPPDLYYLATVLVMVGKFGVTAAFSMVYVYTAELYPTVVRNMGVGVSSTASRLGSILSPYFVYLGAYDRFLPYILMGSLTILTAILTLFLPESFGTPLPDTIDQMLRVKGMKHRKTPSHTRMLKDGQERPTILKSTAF
The data set is described as follows: in vitro. The following applies: HeLa cells that express OCTN2, probe TEA, 20 uM.
Description: TP_TRANSPORTER: inhibition of TEA uptake (TEA: 20 uM, Nicotine: 5000 uM) in OCTN2-expressing HeLa cells

The target in data set [2] is T2, Organic cation/carnitine transporter 2 (Homo sapiens, UniProt O76082).
T2 sequence (O76082 whole entry): T1 sequence (O76082 whole entry)
Description: TP_TRANSPORTER: inhibition of TEA uptake (TEA: 20 uM, Guanidine: 5000 uM) in OCTN2-expressing HeLa cells. The class given is functional, cell-based.

The target in data set [3] is T1, OCTN2 (organic cation/carnitine transporter 2). Description: in vitro. The following applies: HeLa cells that express OCTN2, probe TEA, 20 uM. The source holds these as a separate data set.
Description: TP_TRANSPORTER: inhibition of TEA uptake (TEA: 20 uM, Choline: 5000 uM) in OCTN2-expressing HeLa cells
The target of data set [4] is T2, Organic cation/carnitine transporter 2. The data set is described as follows: TP_TRANSPORTER: inhibition of TEA uptake (TEA: 20 uM, Amphetamine: 5000 uM) in OCTN2-expressing HeLa cells. In kind it is functional, cell-based.
Data set [5] shares this target. Description: TP_TRANSPORTER: inhibition of TEA uptake (TEA: 20 uM, MPP+: 5000 uM) in OCTN2-expressing HeLa cells. The class given is functional, cell-based. The arrangement: scale not given: the % may be the effect or the level left.
Data set [6] has as its target T1, OCTN2 (organic cation/carnitine transporter 2). The data set is described as follows: TP_TRANSPORTER: inhibition of TEA uptake (TEA: 20 uM, Methamphetamine: 5000 uM) in OCTN2-expressing HeLa cells. The class given is functional, cell-based. The arrangement: scale not given: the % may be the effect or the level left. The following applies: HeLa cells that express OCTN2, probe TEA, read-out: Activity.

Data set [7] shares this target. Description: in vitro. The following applies: HeLa cells that express OCTN2, probe TEA, 20 uM. This is another data set of the same source.
Description: TP_TRANSPORTER: inhibition of TEA uptake (TEA: 20 uM, Cimetidine: 5000 uM) in OCTN2-expressing HeLa cells
Data set [8] has the same target. The data set is described as follows: TP_TRANSPORTER: inhibition of TEA uptake (TEA: 20 uM Procainamide: 5000 uM) in OCTN2-expressing HeLa cells. The class given is functional, cell-based. The arrangement: scale not given: the % may be the effect or the level left. Particulars: HeLa cells that express OCTN2, probe TEA, read-out: Activity.

Each structure is given as a SMILES string.

Turning to `CN1CCC[C@H]1c1cccnc1` [NICOTINE], the activity at 5000 µM in data set [1] amounted to 44%.

In the case of `N=C(N)N` [GUANIDINE], the Activity entry in data set [2] is “is not an inhibitor [-]”.

In data set [3], `C[N+](C)(C)CCO` [CHOLINE] returned an activity at 5000 µM of 75%.

`CC(N)Cc1ccccc1` (stereo not drawn) [AMPHETAMINE]: in data set [4], the Activity result was “is not an inhibitor [-]”.

On to `C[n+]1ccc(-c2ccccc2)cc1`, for which the Activity in data set [5] was determined as 39%.

Take `CN[C@@H](C)Cc1ccccc1` [METHAMPHETAMINE]: the activity at 5000 µM in data set [6] amounted to 66%.

`CN/C(=N/CCSCc1nc[nH]c1C)NC#N` [CIMETIDINE]: in data set [7], the activity at 5000 µM turned out to be 39%.

`CCN(CC)CCNC(=O)c1ccc(N)cc1` [PROCAINAMIDE]: in data set [8], the activity at 5000 µM was determined as 39%.
